Values quoted from earlier work as cited in patent US20220000751A1, “METHOD FOR PREPARING AND USING HAIR TREATMENT AGENTS WITH ORGANIC C1-C6-ALKOXY-SILANES” (Henkel AG & Co. KGaA, priority 2020, published 2022).

Conditions: 25° C.

| solubility in water (in words) | Compound | solubility in water |
| --- | --- | --- |
|  | CCN(Cc1cccc(S(=O)(=O)O)c1)c1ccc(C(=C2C=CC(=[N+](CC)Cc3cccc(S(=O)(=O)O)c3)C=C2)c2ccccc2S(=O)(=O)[O-])cc1 [Acid Blue 9] | more than 20 % by weight |
|  | O=S(=O)(O)c1ccc(N=Nc2c(O)ccc3ccccc23)cc1 [Acid Orange 7, 4-[(2-hydroxy-1-naphthyl)azo]benzene sulphonate] | more than 7 g/L |
| highly soluble | O=C(O)C1=NN(c2ccc(S(=O)(=O)O)cc2)C(=O)C1N=Nc1ccc(S(=O)(=O)O)cc1 (stereo not drawn) [Acid Yellow 23, 4,5-dihydro-5-oxo-1-(4-sulfophenyl)-4-((4-sulfophenyl)azo)-1H-pyrazole-3-carboxylic acid] |  |
